In publication PMC5053523, “In Vitro Antibacterial Activity of Rhodanine Derivatives against Pathogenic Clinical Isolates” (PLoS ONE, 2016):
Where two headings read alike, the source gives them in different places.

Experiments:
Escherichia coli O157:H7 [1] = assay: MIC with/without PMBN, Escherichia coli O157:H7; assay type: cell-based
Procedure: (§1) The MIC of the rhodanines and control antibiotics, in the presence of a sub-inhibitory concentration of colistin or polymixin B nonapeptide (PMBN), against Gram-negative bacteria was evaluated as described before. The antibacterial activity of the rhodanines was further investigated against E. coli SM1411Δ acrAB, a strain that is deficient in the multidrug-resistant AcrAB efflux pump, as described before.

Klebsiella pneumoniae = assay: MIC with/without sub-MIC colistin, Klebsiella pneumoniae; assay type: cell-based
Procedure: as §1

Mycobacterium smegmatis = assay: Broth microdilution MIC/MBC, Mycobacterium smegmatis; assay type: cell-based; conditions: Mycolicibacterium smegmatis, ATCC14468, M. Smegmatis ATCC 14468
Escherichia coli Δ acrAB = assay: MIC against E. coli 1411 and AcrAB efflux pump deficient E. coli SM1411Δ acrAB; assay type: cell-based
Procedure: as §1

Bacillus Strains = assay: Broth microdilution MIC50/MIC90 and MIC range, Bacillus strains panel; assay type: cell-based, Bacillus spp.; conditions: 10 Bacillus strains
Source text: The broth microdilution technique was used, followed by subculturing on agar plates that were rhodanine—free. […] The MICs reported represent the lowest concentration of each compound necessary to inhibit bacterial growth and the MBCs represent the lowest concentration required to reduce the initial bacterial inoculum by ≥ 99.9%.

Acinetobacter baumannii = assay: MIC with/without sub-MIC colistin, Acinetobacter baumannii; assay type: cell-based
Procedure: as §1

Escherichia coli O157:H7 [2] = assay: MIC with/without sub-MIC colistin, Escherichia coli O157:H7; assay type: cell-based
Procedure: as §1

B. cereus = assay: Broth microdilution MIC/MBC, B. cereus; assay type: cell-based; conditions: Bacillus cereus; for MBC: read-out: MBC; for MIC: read-out: MIC
Source text: The broth microdilution technique was used, followed by subculturing on agar plates that were rhodanine—free.

[3] = test system: vancomycin resistant enterococci (VRE) E. faecium; assay: Broth microdilution MIC/MBC, VRE E. faecium; assay type: cell-based; conditions: for MIC: read-out: MIC
B. licheniformis = assay: Broth microdilution MIC/MBC, B. licheniformis; assay type: cell-based; conditions: Bacillus licheniformis; for MBC: read-out: MBC; for MIC: read-out: MIC
[4] = NRS201, B. cereus NRS 201 NR-2488
[5] = E. faecium HM 968 Strain ERV102
[6] = E. faecium NR31914 Strain E0120
[7] = E. faecium Patient #1–1 NR-31903
[8] = NCIB9375, B. licheniformis Gibson 46 (NCIB 9375) NR-2494
[9] = NRS712, B. licheniformis NRS 712 NR-2499

CC(=O)NC[C@H]1CN(c2ccc(N3CCOCC3)c(F)c2)C(=O)O1 [Linezolid, linezolid, reference compound]
16 µM: MIC (Escherichia coli Δ acrAB; E.coli 1411 SM (Δ acrAB, AcrAB efflux pump deficient)) | MIC [3, 7]
> 64 µM: MIC (Escherichia coli Δ acrAB; E.coli 1411) | MBC ([3]; E. faecium E417 HM-965) | MBC ([3]; E. faecium E1071 NR-28978) | MBC [3, 5] | MBC [3, 6] | MBC [3, 7]
4 µM: MIC (Mycobacterium smegmatis; read-out: MIC) | MIC (Escherichia coli O157:H7 [2]; Escherichia coli O157:H7 ATCC 700728, colistin (+) […], read-out: MIC) | MBC (B. cereus; B. cereus VD014 NR-22141) | MBC (B. cereus; [4]) | MBC (B. licheniformis; [9])
< 0.5 µM: MIC (B. cereus; B. cereus BAG1X1-1 NR-28575) | MIC (B. cereus; B. cereus VD115 NR-22148)
>64 µM: MIC (Klebsiella pneumoniae; Klebsiella pneumoniae ATCC BAA 2146, colistin (+) […]) | MIC (Acinetobacter baumannii; Acinetobacter baumannii ATCC BAA747, colistin (+) […], read-out: MIC) | MIC (Acinetobacter baumannii; Acinetobacter baumannii ATCC BAA19606, colistin (+) […], read-out: MIC)
> 256 µM: MIC (Escherichia coli O157:H7 [1]; Escherichia coli, ATCC35150)
128 µM: MIC (Escherichia coli O157:H7 [1]; Escherichia coli O157:H7 ATCC 700728, PMBN (+) 4 μg/mL, read-out: MIC)
8 µM: MBC (Mycobacterium smegmatis; read-out: MBC)
1 µM: MIC50 (Bacillus Strains) | MBC (B. cereus; B. cereus BAG1X1-1 NR-28575) | MIC (B. cereus; B. cereus BAG1X2-1 NR-28578) | MBC (B. cereus; B. cereus G9241 NR-9564) | MIC (B. cereus; B. cereus G9241 NR-9564) | MBC (B. cereus; B. cereus VD115 NR-22148) | MIC (B. licheniformis; [8])
2 µM: MIC90 (Bacillus Strains) | MBC (B. cereus; B. cereus BAG1O-2 NR-28582) | MIC (B. cereus; B. cereus BAG1O-2 NR-28582) | MBC (B. cereus; B. cereus BAG1X2-1 NR-28578) | MIC (B. cereus; B. cereus VD014 NR-22141) | MBC (B. cereus; B. cereus VD148 NR-22150) | MIC (B. cereus; B. cereus VD148 NR-22150) | MIC (B. cereus; [4]) | MIC ([3]; E. faecium E417 HM-965) | MIC ([3]; E. faecium E1071 NR-28978) | MIC [3, 5] | MIC [3, 6] | MBC (B. licheniformis; [8]) | MIC (B. licheniformis; [9])
> 128 µM: MIC (Escherichia coli O157:H7 [1]; Escherichia coli, ATCC700728) | MIC (Klebsiella pneumoniae; Klebsiella pneumoniae, BAA2146) | MIC (Acinetobacter baumannii; Acinetobacter baumannii, ATCCBAA747) | MIC (Acinetobacter baumannii; Acinetobacter baumannii, ATCCBAA19606) | MIC (Escherichia coli O157:H7 [2]; Escherichia coli, ATCC35150) | MIC (Escherichia coli O157:H7 [2]; Escherichia coli, ATCC700728)
>256 µM: MIC (Escherichia coli O157:H7 [1]; Escherichia coli O157:H7 ATCC 35150, PMBN (+) 4 μg/mL, read-out: MIC)
≤0.5 µM: MIC (Escherichia coli O157:H7 [2]; Escherichia coli O157:H7 ATCC 35150, colistin (+) […], read-out: MIC)
